Measured values taken from patent US20260015363A1, “SUBSTITUTED PYRIMIDINE-FUSED RING INHIBITOR, METHOD FOR PREPARING SAME, AND USE THEREOF” (Suzhou Zelgen Biopharmaceuticals Co., Ltd., priority 2022, published 2026).
Structures can show the parent of a compound that is named as a salt. Where two headings read alike, the source gives them in different places.

What was measured:
AsPC-1 (G12D) = test: KRAS mutant cell proliferation inhibition assay (CellTiter-Glo 3D), AsPC-1; type: cell-based, human; settings: AsPC-1 (G12D) cells, 7 days
Description: (§1) Positive control: MRTX1133
(§2) • (a) The cells were thawed in T75 cell culture flasks: • (b) When 80%-90% cell confluence was achieved, the cells were passaged.
(§3) The diluted test compound was added to a 384-well cell culture plate using a nanoliter pipetting system, and replicate wells were set. An equal volume of medium was added to the positive control group; an equal volume of DMSO was added to the negative control group. The plate was centrifuged at 1000 rpm at room temperature for 1 min.
(§4) The cells were seeded into a) 384-well culture plate. An equal volume of cells was added to the negative control group, and only an equal volume of medium was added to the positive control group. The plate was centrifuged at 1000 rpm at room temperature for 1 min. The final DMSO concentration in the final compound was 0.5%. The plate was incubated in a thermostatic incubator at 37° C. with 5% CO2 for 7 days.
(§5) CellTiter-Glo® 3D was added to b) 384-well cell culture plate at 20 μL/well. The plate was shaken at 320 rpm in the dark for 20 min, and incubated at room temperature in the dark for 2 h. The luminescence values were read using an Envision multi-mode microplate reader.
(§6) The inhibition rates (IRs) of the test compounds were calculated according to the following formula: IR (%)=(1−(RLU compound−RLU blank control)/(RLU vehicle control−RLU blank control))×100%. The inhibition rates of the compounds at different concentrations were calculated in Excel, and then inhibition curves were plotted and relevant parameters including minimum inhibition rate, maximum inhibition rate and IC50 were calculated using GraphPad Prism software.

H727 (G12V) = test: KRAS mutant cell proliferation inhibition assay (CellTiter-Glo 3D), H727; type: cell-based, human; settings: H727 (G12V) cells, 7 days
Description: as §1, §2, §3, §4, §5, §6

PSN-1 (G12R) = test: KRAS mutant cell proliferation inhibition assay (CellTiter-Glo 3D), PSN-1; type: cell-based; settings: PSN-1 (G12R) cells, 7 days
Description: as §1, §2, §3, §4, §5, §6

MNK1 (WT) = test: Cell proliferation inhibition assay (CellTiter-Glo 3D), MNK1; type: cell-based, human; settings: MNK1 (WT) cells, 7 days
Description: as §1, §2, §3, §4, §5, §6

SW480 (G12V) = test: KRAS mutant cell proliferation inhibition assay (CellTiter-Glo 3D), SW480; type: cell-based; settings: SW480 (G12V) cells, 7 days
Description: as §1, §2, §3, §4, §5, §6

CCc1c(F)ccc2cc(O)cc(N3CCc4c(nc(OCC56CCCN5C[C@@]5(C6)CC5(F)F)nc4N4CCCn5nc(C(=O)N(C)C)cc5C4)C3)c12 (stereo in doubt) [Example B-14, 5-(2-(((1R,7a′R)-2,2-Difluorodihydro-1′H,3′H-spiro[cyclopropane-1,2′-pyrrolizin]-7a′ (5′H)-yl)methoxy)-7-(8-ethyl-7-fluoro-3-hydroxynaphthalen-1-yl)-5,6,7,8-tetrahydropyrido[3,4-d]pyrimidin-4-yl)-N,N-dimethyl-5,6,7,8-tetrahydro-4H-pyrazolo[1,5-a][1,4]diazepine-2-carboxamide hydrochloride]
IC50 (AsPC-1 (G12D); Homo sapiens, ASPC1, 168 h): 0.0269 µM | IC50 (H727 (G12V); Homo sapiens, NCI-H727, 168 h): 0.127 µM | IC50 (PSN-1 (G12R); Homo sapiens, PSN1, 168 h): 7.56 µM | IC50 (MNK1 (WT); Homo sapiens, 168 h): 0.0923 µM

CCc1c(F)ccc2cc(O)cc(-c3ncc4c(N5CCC[C@](C)(O)C5)nc(OCC56CCCN5CC5(C6)CC5(F)F)nc4c3F)c12 (stereo in doubt) [Example A-13A, (S)-1-(2-(((trans)-2,2-difluorodihydro-1′H,3′H-spiro[cyclopropane-1,2′-pyrrolizin]-7a′ (5′H)-yl)methoxy)-7-(8-ethyl-7-fluoro-3-hydroxynaphthalen-1-yl)-8-fluoropyrido[4,3-d]pyrimidin-4-yl)-3-methylpiperidin-3-ol]
IC50 (AsPC-1 (G12D)): > 1 µM | IC50 (H727 (G12V)): 1.99 µM | IC50 (PSN-1 (G12R); read-out: PSN1 IC50): > 10 µM | IC50 (MNK1 (WT)): 0.634 µM

C#Cc1c(F)ccc2cc(O)cc(-c3ncc4c(N(C)[C@H]5C[C@@H]5F)nc(OC[C@@]56CCCN5C[C@@]5(CC5(F)F)C6)nc4c3F)c12 [Example A-44, 4-(2-(((15,7a'S)-2,2-Difluorodihydro-1′H,3′H-spiro[cyclopropane-1,2′-pyrrolizin]-7a′ (5′H)-yl)methoxy)-8-fluoro-4-(((trans)-2-fluorocyclopropyl)(methyl)amino)pyrido[4,3-d]pyrimidin-7-yl)-5-ethynyl-6-fluoronaphthalen-2-ol]
IC50 (AsPC-1 (G12D); Homo sapiens, ASPC1, 168 h): 0.0251 µM | IC50 (SW480 (G12V); Homo sapiens, 168 h): 0.00713 µM

CCc1c(F)ccc2cc(O)cc(-c3ncc4c(N5CCCOC6CC65)nc(OC[C@@]56CCCN5C[C@@]5(CC5(F)F)C6)nc4c3F)c12 (stereo partly drawn) [Example A-28, 4-(4-(2-Oxa-6-azabicyclo[5.1.0]octan-6-yl)-2-(((1S,7a'S)-2,2-difluorodihydro-1′H,3′ H-spiro[cyclopropane-1,2′-pyrrolizin]-7a′ (5′H)-yl)methoxy)-8-fluoropyrido[4,3-d]pyrimidin-7-yl)-5-ethyl-6-fluoronaphthalen-2-ol]
IC50 (AsPC-1 (G12D); Homo sapiens, ASPC1, 168 h): 0.0276 µM | IC50 (SW480 (G12V); Homo sapiens, 168 h): 0.0373 µM

C#Cc1c(F)ccc2cc(O)cc(-c3ncc4c(N5CCCC6(CCO6)C5)nc(OC[C@@]56CCCN5C[C@@]5(CC5(F)F)C6)nc4c3F)c12 (some centres unmarked) [Example A-15, 4-(2-(((1.S,7a'S)-2,2-difluorodihydro-1′H,3′H-spiro[cyclopropane-1,2′-pyrrolizin]-7a′ (5′H)-yl)methoxy)-8-fluoro-4-(1-oxa-6-azaspiro[3.5]nonan-6-yl)pyrido[4,3-d]pyrimidin-7-yl)-5-ethynyl-6-fluoronanhthalen-2-ol]
IC50 (AsPC-1 (G12D); Homo sapiens, ASPC1, 168 h): 0.164 µM | IC50 (H727 (G12V); Homo sapiens, NCI-H727, 168 h): 0.45 µM | IC50 (PSN-1 (G12R); Homo sapiens, PSN1, 168 h): > 10 µM | IC50 (MNK1 (WT); Homo sapiens, 168 h): 0.171 µM

CCc1c(F)ccc2cc(O)cc(-c3ncc4c(N5CCC6CCC(C5)O6)nc(OC[C@@]56CCCN5C[C@@]5(CC5(F)F)C6)nc4c3F)c12 (some centres unmarked) [Example A-31]
IC50 (AsPC-1 (G12D); Homo sapiens, ASPC1, 168 h): 0.736 µM | IC50 (SW480 (G12V); Homo sapiens, 168 h): 0.651 µM

CCc1c(F)ccc2cc(O)cc(-c3ncc4c(N5CCC[C@]6(C5)NC(=O)NC6=O)nc(OC[C@@]56CCCN5C[C@@]5(CC5(F)F)C6)nc4c3F)c12 [Example A-27, (R)-7-(2-(((1S,7a'S)-2,2-Difluorodihydro-1′H,3′H-spiro[cyclopropane-1,2′-pyrrolizin]-7a′ (5′H)-yl)methoxy)-7-(8-ethyl-7-fluoro-3-hydroxynaphthalen-1-yl)-8-fluoropyrido[4,3-d]pyrimidin-4-yl)-1,3,7-triazaspiro[4.5]decane-2,4-dione]
IC50 (AsPC-1 (G12D); Homo sapiens, ASPC1, 168 h): 0.0232 µM | IC50 (H727 (G12V); Homo sapiens, NCI-H727, 168 h): 0.0359 µM | IC50 (PSN-1 (G12R); Homo sapiens, PSN1, 168 h): 0.0797 µM | IC50 (MNK1 (WT); Homo sapiens, 168 h): 0.00535 µM

CCc1c(F)ccc2cc(O)cc(-c3ncc4c(N5CCC[C@@]6(CCO6)C5)nc(OC[C@@]56CCCN5C[C@@]5(CC5(F)F)C6)nc4c3F)c12 [Example A-16A, 4-(2-(((15,7a'S)-2,2-difluorodihydro-1′H,3′H-spiro[cyclopropane-1,2′-pyrrolizin]-7a′ (5′H)-yl)methoxy)-8-fluoro-4-((R)-1-oxa-6-azaspiro[3.5]nonan-6-yl)pyrido[4,3-d]pyrimidin-7-yl)-5-ethyl-6-fluoronaphthalen-2-ol]
IC50 (AsPC-1 (G12D)): 0.0057 µM | IC50 (SW480 (G12V)): 0.0111 µM

C#Cc1c(F)ccc2cc(O)cc(-c3ncc4c(N5CCCOC6CC65)nc(OC[C@@]56CCCN5C[C@@]5(CC5(F)F)C6)nc4c3F)c12 (stereo partly drawn) [Example A-29, 4-(4-((cis)-2-Oxa-6-azabicyclo[5.1.0]octan-6-yl)-2-(((1,5,7a'S)-2,2-difluorodihydro-1′H,3′H-spiro[cyclopropane-1,2′-pyrrolizin]-7a′ (5′H)-yl)methoxy)-8-fluoropyrido[4,3-d]pyrimidin-7-yl)-5-ethynyl-6-fluoronaphthalen-2-ol]
IC50 (AsPC-1 (G12D); Homo sapiens, ASPC1, 168 h): 0.00485 µM | IC50 (SW480 (G12V); Homo sapiens, 168 h): 0.0021 µM

CCc1c(F)ccc2cc(O)cc(-c3ncc4c(N5CCOCCC5C)nc(OC[C@@]56CCCN5C[C@@]5(CC5(F)F)C6)nc4c3F)c12 (stereo partly drawn) [Example A-37, 4-(2-(((1S,7a'S)-2,2-Difluorodihydro-1′H,3′H-spiro[cyclopropane-1,2′-pyrrolizin]-7a′ (5′H)-yl)methoxy)-8-fluoro-4-(5-methyl-1,4-oxazepan-4-yl)pyrido[4,3-d]pyrimidin-7-yl)-5-ethyl-6-fluoronaphthalen-2-ol]
IC50 (AsPC-1 (G12D); Homo sapiens, ASPC1, 168 h): 0.572 µM | IC50 (SW480 (G12V); Homo sapiens, 168 h): 0.307 µM

CCc1c(F)ccc2cc(O)cc(-c3ncc4c(N5CCC[C@@](C)(O)C5)nc(OCC56CCCN5CC5(C6)CC5(F)F)nc4c3F)c12 (stereo in doubt) [Example A-13B, (R)-1-(2-(((trans)-2,2-difluorodihydro-l′H,3′H-spiro[cyclopropane-1,2′-pyrrolizin]-7a′ (5′H)-yl)methoxy)-7-(8-ethyl-7-fluoro-3-hydroxynaphthalen-1-yl)-8-fluoropyrido[4,3-d]pyrimidin-4-yl)-3-methylpiperidin-3-ol]
IC50 (AsPC-1 (G12D)): 0.0188 µM | IC50 (H727 (G12V)): 0.0517 µM | IC50 (PSN-1 (G12R); read-out: PSN1 IC50): 0.506 µM | IC50 (MNK1 (WT)): 0.0129 µM

CCc1c(F)ccc2cc(O)cc(N3CCc4c(nc(OC[C@@]56CCCN5C[C@@]5(CC5(F)F)C6)nc4N4CCCn5nc(C(=O)N(C)C)cc5C4)C3)c12 [Example B-13, 5-(2-(((1S,7a'S)-2,2-Difluorodihydro-1′H,3′H-spiro[cyclopropane-1,2′-pyrrolizin]-7a′ (5′H)-yl)methoxy)-7-(8-ethyl-7-fluoro-3-hydroxynaphthalen-1-yl)-5,6,7,8-tetrahydropyrido[3,4-d]pyrimidin-4-yl)-N,N-dimethyl-5,6,7,8-tetrahydro-4H-pyrazolo[1,5-a][1,4]diazepine-2-carboxamide]
IC50 (AsPC-1 (G12D); Homo sapiens, ASPC1, 168 h): 0.00898 µM | IC50 (H727 (G12V); Homo sapiens, NCI-H727, 168 h): 0.0473 µM | IC50 (PSN-1 (G12R); Homo sapiens, PSN1, 168 h): 2.35 µM | IC50 (MNK1 (WT); Homo sapiens, 168 h): 0.0243 µM

CCc1c(F)ccc2cc(O)cc(-c3ncc4c(N5CCC[C@@]6(C5)NC(=O)NC6=O)nc(OC[C@@]56CCCN5C[C@@]5(CC5(F)F)C6)nc4c3F)c12 [Example A-26, (S)-7-(2-(((1S,7a'S)-2,2-Difluorodihydro-1′H,3′H-spiro[cyclopropane-1,2′-pyrrolizin]-7a′ (5′H)-yl)methoxy)-7-(8-ethyl-7-fluoro-3-hydroxynaphthalen-1-yl)-8-fluoropyrido[4,3-d]pyrimidin-4-yl)-1,3,7-triazaspiro[4.5]decane-2,4-dione]
IC50 (AsPC-1 (G12D); Homo sapiens, ASPC1, 168 h): > 1 µM | IC50 (H727 (G12V); Homo sapiens, NCI-H727, 168 h): 7.37 µM | IC50 (PSN-1 (G12R); Homo sapiens, PSN1, 168 h): > 10 µM | IC50 (MNK1 (WT); Homo sapiens, 168 h): 1.62 µM

CCc1c(F)ccc2cc(O)cc(-c3ncc4c(N(C)[C@H]5C[C@@H]5F)nc(OC[C@@]56CCCN5C[C@@]5(CC5(F)F)C6)nc4c3F)c12 [Example A-45, 4-(2-(((1,5,7a'S)-2,2-Difluorodihydro-1′H,3′H-spiro[cyclopropane-1,2′-pyrrolizin]-7a′ (5′H)-yl)methoxy)-8-fluoro-4-(((trans)-2-fluorocyclopropyl)(methyl)amino)pyrido[4,3-d]pyrimidin-7-yl)-5-ethyl-6-fluoronaphthalen-2-ol]
IC50 (AsPC-1 (G12D); Homo sapiens, ASPC1, 168 h): 0.0744 µM | IC50 (SW480 (G12V); Homo sapiens, 168 h): 0.041 µM

CN(c1nc(OC[C@@]23CCCN2C[C@@]2(CC2(F)F)C3)nc2c(F)c(-c3cc(N)cc(Cl)c3C(F)(F)F)ncc12)[C@H]1C[C@@H]1F [Example A-46, 7-(5-Amino-3-chloro-2-(trifluoromethyl)phenyl)-2-(((15,7a'S)-2,2-difluorodihydro-1′H,3′H-spiro[cyclopropane-1,2′-pyrrolizin]-7a′ (5′H)-yl)methoxy)-8-fluoro-N-((trans)-2-fluorocyclopropvl)-N-methylpyrido[4,3-d]pyrimidin-4-amine]
IC50 (AsPC-1 (G12D); Homo sapiens, ASPC1, 168 h): 0.732 µM | IC50 (SW480 (G12V); Homo sapiens, 168 h): 0.482 µM
